Test results taken from patent US20210139441A1 (priority 2017, published 2021).

Test system: Crl:CD(SD) rats
Details: rat, in vivo

FC(F)(F)[C@@H]1O[C@@H]1C(F)(F)F [(2R,3S)-2,3-bis(trifluoromethyl)oxirane, Cis-2,3-bis(trifluoromethyl)oxirane] was tested, and the “Fractional mortalities (number of deaths/number exposed)” value (both, Crl:CD(SD)) was 0/4, the “activity level and breathing rate” value was “decreased” and the bodyweight loss was 3 gram. For the same compound, the “clinical signs after exposure” value was “no abnormal clinical signs”, the “clinical signs of toxicity” value was “no clinical signs of toxicity” and the “startle response after exposure” value was “normal startle response”. For the same compound, the “startle response during the exposure” value was “normal startle responses” and the “state and response to sound stimulus” value was “prostrate and unresponsive to sound stimulus”.
